Test results from patent US9580430B2, “9H-pyrimido[4,5-B]indoles and related analogs as BET bromodomain inhibitors” (THE REGENTS OF THE UNIVERSITY OF MICHIGAN, priority 2014, dated 2017).

How the values were obtained:
recombinant BRD4 BD1 = molecular target: T1, recombinant BRD4 BD1 (Homo sapiens, UniProt O60885); assay: Competitive fluorescence-polarization (FP) binding assay, BRD4 BD1; details: competitive FP assay; protein 10 nM, probe […]; read-out: IC50 (nM) BRD4 BD1; further: probe 1.5 nM
T1 construct: for recombinant BRD4 BD1 and BRD4 BD2 proteins
Outline: (§1)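 Buffer: 100 mM potassium phosphate, pH 6.5, 0.01% Triton X-100; compounds added in buffer with 40% ethylene glycol to preformed complex of fluorescent probe with BRD4 BD1 (10 nM final) or BD2 (6 nM final). After 30 min at room temperature, polarization read. IC50 from nonlinear fits of competition curves, with Ki.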

recombinant BRD4 BD2 = molecular target: T2, recombinant BRD4 BD2 (Homo sapiens, UniProt O60885); assay: Competitive fluorescence-polarization (FP) binding assay, BRD4 BD2; details: competitive FP assay; protein 6 nM, probe […]; read-out: IC50 (nM) BRD4 BD2; further: probe 1.5 nM
T2 construct: for recombinant BRD4 BD1 and BRD4 BD2 proteins
Outline: as §1

MDA-MB-436 = assay: Cell growth inhibition, MDA-MB-436 breast cancer cells (WST-8); type: cell-based; details: Homo sapiens, MDA-MB-436, 96 h; 4 days; read-out: IC50 (nM) MDA-MB-436 Cell Line (WST assay)
Outline: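 IC50 was computed from WST-8-based cell counting in MDA-MB-436 cells, with absorbance read at 450 nm.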

MOLM-13 = assay: Cell growth inhibition, MOLM-13 leukemia cells (CellTiter-Glo); type: cell-based; details: Homo sapiens, MOLM-13, 96 h; 4 days; read-out: IC50 (nM) MOLM-13 Cell Line (CellTiter-Glo assay)
Protocol: Cell growth inhibitory activity of representative Compounds of the Disclosure was determined using CellTiter-Glo® Luminescent Cell Viability Assay. […] Cell viability was determined using the CellTiter-Glo® Luminescent Cell Viability Assay Kit (Promega, Madison, Wis.) according to the manufacture's instruction. Briefly, a volume of CellTiter-Glo® Reagent equal to the volume of cell culture medium was added to each well, and then the plates were incubated at room temperature for 10-20 minutes. The luminescent signal was measured using a Tecan Infinite M1000 multimode microplate reader (Tecan, Morrisville, N.C.). The half maximal inhibitory concentration (IC50) was calculated using the GraphPad Prism 5 software (GraphPad Software, La Jolla, Calif.).

| IC50 (recombinant BRD4 BD1) [nM] | IC50 (recombinant BRD4 BD2) [nM] | IC50 (MDA-MB-436) [nM] | IC50 (MOLM-13) [nM] | Structure (SMILES) |
| --- | --- | --- | --- | --- |
| 6.1 | 4.1 | 26 | 11.7 | COc1cc2c(cc1-c1c(C)noc1C)[nH]c1nc(C)nc(Nc3cc(C(C)C)nn3C)c12 [Cpd. No. 65, 7-(3,5-Dimethylisoxazol-4-yl)-N-(3-isopropyl-1-methyl-1H-pyrazol-5-yl)-6-methoxy-2-methyl-9H-pyrimido[4,5-b]indol-4-amine] |
| 29.4 | 23.7 | 156 | 117 | COc1cc2c(cc1-c1c(C)noc1C)[nH]c1nc(C)nc(Nc3c(C)cnn3C)c12 [Cpd. No. 76, N-(1,4-dimethyl-1H-pyrazol-5-yl)-7-(3,5-dimethylisoxazol-4-yl)-6-methoxy-2-methyl-9H-pyrimido[4,5-b]indol-4-amine] |
| 64.4 | 168 | 351 | 242 | COc1cc2c(cc1-c1c(C)noc1C)[nH]c1nc(C)nc(Nc3nn(C)cc3C)c12 [Cpd. No. 77, N-(1,4-dimethyl-1H-pyrazol-3-yl)-7-(3,5-dimethylisoxazol-4-yl)-6-methoxy-2-methyl-9H-pyrimido[4,5-b]indol-4-amine] |
| 9.3 | 1.8 | 121 | 43.9 | COc1cc2c(cc1-c1c(C)noc1C)[nH]c1nc(C)nc(Nc3c(C(C)C)cnn3C)c12 [Cpd. No. 79, 7-(3,5-dimethylisoxazol-4-yl)-N-(4-isopropyl-1-methyl-1H-pyrazol-5-yl)-6-methoxy-2-methyl-9H-pyrimido[4,5-b]indol-4-amine] |
| 5.1 | 19.6 | 67 | 22.9 | COc1cc2c(cc1-c1c(C)noc1C)[nH]c1nc(C)nc(Nc3c(C)c(C)nn3C(C)C)c12 [Cpd. No. 81, 7-(3,5-dimethylisoxazol-4-yl)-N-(1-isopropyl-3,4-dimethyl-1H-pyrazol-5-yl)-6-methoxy-2-methyl-9H-pyrimido[4,5-b]indol-4-amine] |
| 34 | 8 | 180 | 43 | COc1cc2c(cc1-c1c(C)noc1C)[nH]c1nc(C)nc(Nc3cccc(Cl)c3)c12 [Cpd. No. 97, N-(3-chlorophenyl)-7-(3,5-dimethylisoxazol-4-yl)-6-methoxy-2-methyl-9H-pyrimido[4,5-b]indol-4-amine] |

The next lines start with the compound.

| Structure (SMILES) | IC50 (recombinant BRD4 BD1) [nM] | IC50 (recombinant BRD4 BD2) [nM] | IC50 (MDA-MB-436) [nM] | IC50 (MOLM-13) [nM] |
| --- | --- | --- | --- | --- |
| COc1cc2c(cc1-c1c(C)noc1C)[nH]c1nc(C)nc(Nc3c(C)nn(C(C)C)c3C)c12 [Cpd. No. 36, 7-(3,5-dimethylisoxazol-4-yl)-N-(1-isopropyl-3,5-dimethyl-1H-pyrazol-4-yl)-6-methoxy-2-methyl-9H-pyrimido[4,5-b]indol-4-amine] | 68.5 | 92.6 | 236 | 103 |
| COc1cc2c(cc1-c1c(C)noc1C)[nH]c1nc(C)nc(Nc3c(C)cnn3C(C)C)c12 [Cpd. No. 37, 7-(3,5-dimethylisoxazol-4-yl)-N-(1-isopropyl-4-methyl-1H-pyrazol-5-yl)-6-methoxy-2-methyl-9H-pyrimido[4,5-b]indol-4-amine] | 12.1 | 6.5 | 56.2 | 54.1 |
| COc1cc2c(cc1-c1c(C)noc1C)[nH]c1nc(C)nc(Nc3n[nH]c4ccccc34)c12 [Cpd. No. 58, 7-(3,5-Dimethylisoxazol-4-yl)-N-(1H-indazol-3-yl)-6-methoxy-2-methyl-9H-pyrimido[4,5-b]indol-4-amine] | 11 | 22.6 | 54.6 | 32 |
| COc1cc2c(cc1-c1c(C)noc1C)[nH]c1nc(C)nc(Nc3nn(C)c4cc(F)ccc34)c12 [Cpd. No. 59, 7-(3,5-Dimethylisoxazol-4-yl)-N-(6-fluoro-1-methyl-1H-indazol-3-yl)-6-methoxy-2-methyl-9H-pyrimido[4,5-b]indol-4-amine] | 90.5 | 174 | 535 | 401 |
